Results on six substances are retold here after patent US8889143B2, “Ii-key/HER-2/neu hybrid cancer vaccine” (Antigen Express, Inc., priority 2006, dated 2014).

For data set [1] the following is noted: Her-2/neu+ breast cancer patients; cited from earlier work.
Data set [2] relates to hen egg white lysozyme (HEL)-specific T cell hybridoma. The settings on record: cited from earlier work.
Data set [3] in a line: Phase II trial: DTH reactions. The format is in vivo, human. The settings on record: label = challenge peptide.
Excerpt: (§1) Immunologic response was monitored by measured delayed type hypersensitivity reactions (DTH) and ^3H-thymidine proliferative assays for both hybrid AE37 (LRMK+HER2/neu:776-790) and AE36 (unmodified HER2/neu:776-790) peptides.
The test system of data set [4] is PBMC. The data set can be described thus: 3H-thymidine proliferation assay on patient PBMC. The settings on record: PBMC of patients vaccinated with AE37, label = stimulating peptide. The format is cell-based, human.
Excerpt: Blood was drawn from patients prior to receiving each inoculation, at one month (post-vaccination), and at six months (long-term) after completing the series. Forty ml of peripheral blood was drawn into Vacutainer® CPT™ tubes (Becton Dickinson, Franklin Lakes, N.J.) and centrifuged for the isolation of PBMC populations. PBMC were washed in HBSS and re-suspended in culture medium (CM) consisting of RPMI-1640 containing 10% FCS (Gemini Bio-Products, Woodland, Calif.) supplemented with 1× penicillin/L-glutamine/streptomycin (Life Technologies, Gaithersburg, Md.) and used for setting up the immunomonitoring protocol/assays which consisted of ELISPOT (IFN-γ secretion) and proliferation (3H-thymidine incorporation) assays. All cultures were maintained in a humidified incubator at 37° C. in 5% CO2.
The PBMC population prepared from the patient's peripheral blood sample was also used for the monitoring of vaccine-specific proliferative activity of the T lymphocytes using a standard radioactive ^3H-thymidine incorporation assay. […] The filtermat was dried and placed in a sample bag with scintillation fluid (BetaScint, Perkin-Elmer) and counted using a scintillation counter (MicroBeta Trilux Scintillation Counter, Perkin-Elmer). The proliferative activity associated with the cultures was measured by the amount of thymidine incorporation which was determined as counts per minute (cpm). […]
A short description of data set [5]: Phase II trial: 3H-thymidine proliferative assays. The format is cell-based, human. The settings on record: label = stimulating peptide.
Excerpt: as §1
In data set [6] the test system is PBMC. The data set can be described thus: IFN-γ ELISPOT assays (ex vivo and 7-day) on patient PBMC. The format is cell-based, human. The settings on record: PBMC of patients vaccinated with AE37; label = stimulating peptide.
Excerpt: Blood was drawn from patients prior to receiving each inoculation, at one month (post-vaccination), and at six months (long-term) after completing the series. Forty ml of peripheral blood was drawn into Vacutainer® CPT™ tubes (Becton Dickinson, Franklin Lakes, N.J.) and centrifuged for the isolation of PBMC populations. […]
The human IFN-γ ELISPOT Kit (BD-Pharmingen) was used for the ELISPOT assays. […] The plate was allowed to dry and the number of spots present in each well was counted and analyzed using a CTL-ImmunoSpot Analyzer (C.T.L. Cellular Technology Ltd, OH) (FIGS. 7-10). […]
The PBMC population prepared from the patient's peripheral blood (as described in the previous section) was resuspended at 2×10^6 cells/ml in CM and added as 1 ml aliquots to the 8 wells. […] At the end of the incubation period the plate was removed and the cells/cultures were harvested into separate tubes, spun down, resuspended in CM, and counted. […] The plate was allowed to dry and the number of spots present in each well was counted and analyzed using a CTL-ImmunoSpot Analyzer (C.T.L. Cellular Technology Ltd, OH) (FIGS. 11-14). […]
The nature of data set [7]: Phase II trial: recurrence of breast cancer. The format is in vivo, human. Conditions: for Recurrences (patients/total) / Recurrences: median follow up of 13 months; for Recurrences: PG vs AG p=0.08.
Description: (§2) Toxicity is assessed after each inoculation using National Cancer Institute Common Terminology Criteria for Adverse Events v3.0 (CTCAE). […] Patients are clinically, radiographically, and pathologically monitored for recurrence of BCa.
The nature of data set [8]: Phase II trial AE37+GM-CSF versus GM-CSF alone: toxicity (CTCAE v3.0). The settings on record: six monthly inoculations, AG = GM-CSF alone.
Description: as §2
For data set [9] the following is noted: in vivo.
Description: as §2
Data set [10] is described as follows: Phase Ib trial: local reaction and dose reductions. The format is in vivo, human. The procedure: The study was performed as a two-stage safety trial to define the maximum tolerated dose of vaccine as well as the optimal dosing of the vaccine and GM-CSF. In the first stage (FIGS. 1-4), patient dose groups were given escalating amounts of the AE37 peptide. Three patients were assigned to each dosing group and were given the assigned dose of AE37 with a fixed initial dose of GM-CSF of 250 μg. This dose of GM-CSF was chosen based on our previous E75 trials. However, GM-CSF was reduced 50% for subsequent inoculations when local skin reaction exceeded 100 mm. All patients received monthly inoculations for six months. Dosing groups were as follows (AE37 (μg):#inoculations): 100:6, 500:6, 1000:6. Because each patient in the 500:6 group required significant and repeated reductions of GM-CSF, the 1000:6 group was initially inoculated without GM-CSF; GM-CSF was added back if local reaction from the two injection sites were non-confluent.
The hybrid peptide AE37 was mixed with GM-CSF (varying doses) and injected intradermally in the same extremity on a monthly basis. Each dosing group consisted of 3 patients. […] Stage I was designed to identify the maximum tolerated dose of vaccine. Stage II was designed to find the optimal biologic dose. Local toxicity dictated dose adjustments in each stage.
A local reaction ≧100 mm in at least one direction necessitates a reduction of GM-CSF dose for the subsequent vaccination (or reduction in vaccine dose if patient received no GM-CSF). […] FIGS. 1-4 show the dose of GM-CSF and the local reaction in each patient throughout the vaccine series.

Data set [11] can be described thus: Phase Ib trial: delayed type hypersensitivity (DTH) reaction. The class given is in vivo, human. The settings on record: 100 μg AE37 intradermal without GM-CSF. The procedure:
A direct in vivo measure of the vaccine's effectiveness is the DTH reaction. Patients were injected intradermally with 100 μg of AE37 (without GM-CSF) prior to the initiation of the vaccination series and one month after the completion of the vaccination regimen in the opposite limb to which they received the vaccine series. Patients were also injected intradermally with a parallel control (sterile saline, same volume) at a site on the back or extremity (opposite side from the vaccination site). The DTH reaction was measured in two dimensions at 48-72 hours using the sensitive ballpoint pen method and compared with control. Pre- and post-vaccination DTH reactions were also compared.

The conditions of data set [12]: in vivo. This is another data set of the same source.
Excerpt: The dose escalation safety trial design is for five groups of three patients to receive escalating doses of AE37 with or without GM-CSF in six monthly inoculations. An additional six patients will be vaccinated at the optimal biologic dosing (OBD) in order to complete the 21 patient phase I trial. Enrolled patients were HLA typed, and HLA-A2^− patients and those HLA-A2^+ patients not interested in an alternative vaccine trial were vaccinated.
The National Institutes of Health Common Toxicity Criteria (CTC) (Version 2, Mar. 23, 1998) definitions of adverse events were applied. Both local toxicity at the injection sites as well as systemic toxicity were evaluated in all patients for all inoculations. By design, progression to the second stage occurred only if no significant toxicity occurred in the first stage.
Toxicities were graded per the National Institutes of Health Common Toxicity Criteria and reported on a scale zero to five (Table 3). Local toxicity dictated dose reductions as described above.
The mark [13] stands for this setting: AG group (GM-CSF alone), p>0.05 vs baseline.
Setting [14] is: PG group (AE37 + GM-CSF), p<0.0001 vs baseline.
The mark [15] stands for this setting: PG (AE37 + GM-CSF), at 3, 6, and 12 months after the start of the vaccine series, p<0.015.

On to “GP2: immunogenic peptide of Her-2/neu used in clinical trials as vaccine (IISAVVGIL; UniProt P04626 654-662, looked up, fragment)”, for which, in [1], the Safety in patients entry is “safe in patients” and the “Stimulation of antigen specific immunity” value is recorded as “effective in stimulating antigen specific immunity”.

For the substance “LRMK [four-amino-acid Ii-Key moiety, Ii 77-80]”, in data set [2], the “Activity retained relative to LRMKLPK” value is “at least 50%”.

In the case of “Ac-GVGSPYVSRLLGICL-NH2 [AE36, native HER-2/neu peptide aa776-790, reference compound]”, the results for the “Median DTH reaction at baseline” value in data set [3] (AG group (GM-CSF alone)) and in [3] (PG group (AE37 + GM-CSF)) were 0.0±0.5 cm and 0.0±0.8 cm, respectively. Besides, the Median DTH reaction at 1 month after completion of the primary series in [3] (setting [13]) was found to be 0 mm; in data set [3] (setting [14]) it was 15.3 ± 2.1 mm. The “Peptide-specific proliferation of T cells after vaccination” value with PBMC [4] is “increased capacity to divide and expand a specific clone”; with PBMC [4] (listed as native Her-2/neu peptide), “increased CD4+ T cell response”. Further, the “Median proliferation response versus baseline” value in data set [5] (AG (GM-CSF alone)) is “did not significantly change”; in data set [5] (setting [15]), “significantly increased from baseline”. Besides, the “CD4+ T cell response (IFN-γ ELISPOT) to stimulating peptide after vaccination” value with PBMC [6] is given as “increased CD4+ T cell response”.

In the case of GM-CSF, in data set [7], the “Recurrences (patients/total)” value was 5/71 and the Recurrences is listed as 7.0%. In [8] (PG = 500 mcg AE37 + 62.5 or 125 mcg GM-CSF), the Local toxicities entry is on record as “no grade 4-5 local toxicities”. In data set [8] (PG = AE37 + GM-CSF), the Systemic toxicities result is reported as “no grade 3-5 systemic toxicities”.

With Ac-LRMKGVGSPYVSRLLGICL-NH2 [AE37], the “Median DTH reaction at baseline” value in data set [3] (AG group (GM-CSF alone)) came out at 0.0±0.7 cm. In [3] (setting [13]), this substance came in with a Median DTH reaction at 1 month after completion of the primary series of 0 mm. Besides, the “Median DTH reaction at baseline” value in [3] (PG group (AE37 + GM-CSF)) is 0.0±0.7 cm. In addition, in [3] (setting [14]), the Median DTH reaction at 1 month after completion of the primary series worked out at 24.5 ± 2.6 mm. Moreover, the Overall safety result in data set [9] was “safe”. Further, in data set [7], the “Recurrences (patients/total)” value was 0/49 and the Recurrences is 0.0%. For the same substance, in data set [7] (phase II), the “Protection against BCa recurrences” value is reported as “protects against BCa recurrences”. Moreover, the “Dose reductions required because of local reaction ≧100 mm” value (“Dose reductions required because” below) in data set [10] (first group 100:6 (100 μg AE37 + 250 μg GM-CSF)) was “required no reductions in dose”. The “Dose reductions required because” value in data set [10] (second group 500:6 (500 μg AE37 + 250 μg GM-CSF initially)) is reported as “required a GM-CSF dose reduction by the third vaccine”. In addition, the “Dose reductions required because” value in data set [10] (third group 1000:6 (1000 μg AE37 initiated without GM-CSF)) is given as “two of the three patients in this group required reduction of vaccine dose on multiple occasions”. Further, in [11] (before vaccination series), the “DTH diameter of local reaction pre vaccine, range” value was 0-17 mm. Also, the “DTH diameter of local reaction post-vaccine, range” value in [11] (one month after completion of series) was 12-106 mm. In [11] (one month after completion of series, p<0.0001 vs pre), the “DTH mean diameter of local reaction post-vaccine” value was found to be 62 mm. In data set [11] (read at 48-72 hours, before vaccination series), the “DTH mean diameter of local reaction pre vaccine” value worked out at 4.9 mm. For the same substance, the “Median proliferation response versus baseline” value in data set [5] (AG (GM-CSF alone)) is given as “did not significantly change”. In addition, in [5] (setting [15]), the “Median proliferation response versus baseline” value is “significantly increased from baseline”. Further, in [12], the “Grade 3 or greater local toxicities” value is “no grade 3 or greater local toxicities”; the “Local toxicity grade, all patients” value was “grade 1 or 2 local toxicity”; the “Maximum Toxicity, Local Toxicity Grade 1, number of patients (%)” value was 3 (25)%; the “Maximum Toxicity, Local Toxicity Grade 2, number of patients (%)” value is 9 (75%). In addition, in data set [12], the “Maximum Toxicity, Local Toxicity Grade 3, number of patients (%)” value is reported as 0 (0%); the “Maximum Toxicity, Systemic Toxicity Grade 1, number of patients (%)” value is 10 (83%); the “Maximum Toxicity, Systemic Toxicity Grade 2, number of patients (%)” value is on record as 0 (0%); the “Maximum Toxicity, Systemic Toxicity Grade 3, number of patients (%)” value is 0 (0%). Further, in data set [12], the “Overall safety and tolerability” value is “safe and well-tolerated with minimal systemic toxicity observed”; the Systemic toxicities reported result is recorded as “Only grade 1 systemic toxicities”.

With LRMKLPK, the “Potency relative to the original 16-amino acid peptide” value in data set [2] is “greater potency than the original 16-amino acid peptide”.
